Literature values in US20190167749A1, “THE OLEO GEL COMPOSITION AND DELIVERY SYSTEM WITH ACTIVE COMPOUNDS FROM CANNABIS SATIVA AND MENTHA ARVENSIS FOR REDUCTION OF INFLAMMATION AND PAIN IN DEEP TISSUES” (UAB SATIMED, priority 2016, published 2019).
Like-named read-outs stand apart in the source and are kept apart here.

System: collagen-induced arthritis

## C=C(C)[C@@H]1CCC(C)=C[C@H]1c1c(O)cc(CCCCC)cc1O [CBD, cannabidiol]
Acute and chronic relapsing CIA, i.p. or oral administration
  progression of arthritis: effectively blocked progression of arthritis
i.p.
  dose with optimal effect (bell-shaped dose dependency): 5 mg/kg per day
orally
  dose with optimal effect (bell-shaped dose dependency): 25 mg/kg per day
